# According to US11319374B2, “Inhibitors of prototypic galectin dimerization and uses thereof” (INSTITUT NATIONAL DE LA RECHERCHE SCIENTIFIQUE, priority 2015, dated 2022):
# Assays:
# [1] = system: Jurkat T cells; assay: hGal-7-induced apoptosis of Jurkat T cells, Annexin V/PI flow cytometry; type: cell-based; conditions: 4 h at 37° C., FIGS. 5B and 5C
# Experimental: Apoptosis assays with Annexin V/PI staining. Apoptosis was measured by flow cytometry using FITC-labeled Annexin V (Biolegend®, San Diego, Calif., USA) and propidium iodide. Briefly, the corresponding dilutions of recombinant hGal-7 and hGal-7(129-135) peptides were pre-incubated for 1 h at 4° C. in serum-free RPMI 1640 medium. 2.5×10^5 Jurkat cells were then harvested in the same medium and incubated with their corresponding dilutions at 37° C. for 4 h. Cells were washed once in PBS and once in binding buffer (0.01 M HEPES, 0.14 M NaCl, 2.5 mM CaCl2, pH 7.4). Cells were then incubated for 15 min with Annexin V in the dark at room temperature. A total of 400 μL of binding buffer containing 0.25 μg/mL propidium iodide was added to the cells before analysis by flow cytometry.
# It was thus tested whether hGal-7(129-135) could modulate the binding of hGal-7 on Jurkat T cells, a cell model that is commonly used to test the pro-apoptotic activity of galectins. For this purpose, recombinant hGal-7 was labeled with fluorescein isothiocyante (FITC) and its binding on the surface of Jurkat T cells was measured by flow cytometry in absence or presence of increasing concentrations of hGal-7(129-135). […] The effect of hGal-7(129-135) was specific, statistically significant (FIG. 4B), and consistent with the increased number of monomers, which bind to surface glycosylated receptors through their CRDs. […]
# [2] = molecular target: T1, hGal-7/Bcl-2 heterodimer (Homo sapiens, UniProt P47929); assay: hGal-7/Bcl-2 heterodimer disruption, low-SDS Western blotting with anti-Gal-7 antibody; type: biochemical; conditions: hGal-7 and Bcl-2 each 0.5 μM, especially at the highest dose of 500 μM, FIG. 12C
# T1 construct: host or cells: E. coli BL21 (DE3) (hGal-7)
# Experimental: FIGS. 12A to 12C show the dose-dependent disruption of the hGal-7/Bcl-2 heterodimer in the presence of the hGal-7(129-135) peptide. FIGS. 12A and 12B: detection of hGal-7/Bcl-2 heterodimers in the presence of the indicated amounts of recombinant Bcl-2 using an anti-gal-7 antibody (FIG. 12A) or an anti-Bcl-2 antibody (FIG. 12B). FIG. 12C: the recombinant hGal-7 and Bcl-2 (each at 0.5 μM) were incubated with increasing concentrations of hGal-7(129-135) in 20 mM potassium phosphate buffer (pH 7.1). The effect of hGal-7(129-135) on the homodimerization and heterodimerization (with Bcl-2) of hGal-7 was assessed by Western blotting in low-SDS conditions with an anti-Gal-7 antibody.
# Production of recombinant hGal-7 and hGal-1. Human Gal-7 cDNA was cloned into pET-22b(+) using Ndel and HindIII restriction enzymes. Human pET-Gal-1 vector was generously donated by Dr. S. Sato (McGill University, QC, Canada). The proteins were produced in E. coli BL21 (DE3) cells at 37° C. Isopropyl p-D-1-thiogalactopyranoside (IPTG) (1 mM) was added to the bacterial culture at OD600nm=0.6-0.7 and then incubated for 4 h at 37° C. to allow protein production. […] Purified fractions were analyzed by SDS-PAGE. […]
# T1 sequence (P47929 2-136 limits assumed, one chain of several): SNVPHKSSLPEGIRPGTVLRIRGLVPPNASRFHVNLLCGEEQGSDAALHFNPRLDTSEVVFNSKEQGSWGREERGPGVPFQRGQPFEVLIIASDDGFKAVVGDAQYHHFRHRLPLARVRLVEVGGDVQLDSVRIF
substance,measurement,setting,value
"H-Leu-Asp-Ser-Val-Arg-Ile-Phe-NH2 (H-LDSVRIF-NH2; listed as Homo sapiens) [hGal-7(129-135), peptide corresponding to residues 129-135 of hGal-7]","inhibition of hGal-7-induced apoptosis, Annexin V/PI staining",[1],confirmed
same,amount of hGal-7/Bcl-2 heterodimers,[2],decreased
